Read-outs that look alike come from different tables or passages of the source.
Columns and labels:
Assay in all cases: MIC determination and potentiation assay (microdilution broth)
Type in all cases: cell-based
NRS128, MSSA, bla + = conditions: Staphylococcus aureus
Description: (§1) MICs were determined by the microdilution broth method following the Clinical & Laboratory Standards Institute (CLSI) guidelines. […] Experiments were performed in triplicate in 96-well plates with 5×10^5 CFU·mL^−1 of bacteria. […] The MIC was the concentration for which bacterial growth was not observed.

[1] = tested on: 626 (NRS382), MRSA, SCCmec II, bla +; conditions: Staphylococcus aureus
Description: as §1

[2] = tested on: CT-19 (NRS676), MRSA, SCCmec IV, bla +; conditions: Staphylococcus aureus
Description: as §1

[3] = tested on: AIS 1000505 (VRS10), MRSA, vancomycin-resistant, SCCmec II, bla +; conditions: Staphylococcus aureus
Description: as §1

[4] = tested on: ATCC 33591, MRSA, SCCmec III, bla +; conditions: Staphylococcus aureus
Description: as §1

[5] = tested on: LinR#12 (NRS119), MRSA, SCCmec IV, bla +; conditions: Staphylococcus aureus
Description: as §1

[6] = tested on: FPR3757, MRSA, USA300 clone, SCCmec IV, bla +; conditions: Staphylococcus aureus
Description: as §1

[7] = tested on: N315 (NRS70), MRSA, SCCmec II, bla +; conditions: Staphylococcus aureus
Description: as §1

[8] = tested on: USA300-0114 (NRS384), MRSA, SCCmec IV, bla +; conditions: Staphylococcus aureus
Description: as §1

[9] = tested on: CO-23 (NRS661), MRSA, SCCmec II, bla +; conditions: Staphylococcus aureus
Description: as §1

[10] = tested on: NY-315 (NRS715), MRSA, SCCmec II, bla +; conditions: Staphylococcus aureus
Description: as §1

[11] = tested on: HIP13036 (NRS404), MRSA/VISA, SCCmec II, bla +; conditions: Staphylococcus aureus
Description: as §1

[12] = tested on: HT 20020320 (NRS245), MRSA, SCCmec IV, bla +; conditions: Staphylococcus aureus
Description: as §1

[13] = tested on: HI049, MRSA, USA300 clone, SCCmec IV, bla +; conditions: Staphylococcus aureus, agent alone
Description: as §1

[14] = tested on: 880, MRSA, SCCmec IV, bla +
Description: as §1

[15] = tested on: CA-347 (NRS648), MRSA, SCCmec II, bla +; conditions: Staphylococcus aureus
Description: as §1

[16] = tested on: MN-082 (NRS701), MRSA, SCCmec II, bla +; conditions: Staphylococcus aureus
Description: as §1

[17] = tested on: HFH 30495, MRSA, SCCmec II, bla +; conditions: Staphylococcus aureus
Description: as §1

[18] = tested on: CA-263 (NRS647), MRSA, SCCmec IV, bla +; conditions: Staphylococcus aureus
Description: as §1

[19] = tested on: HFH 29568, MRSA, USA300 clone, SCCmec IV, bla +; conditions: Staphylococcus aureus
Description: as §1

[20] = tested on: MW2 (NRS123), MRSA, SCCmec IV, bla +; conditions: Staphylococcus aureus
Description: as §1

[21] = tested on: CA-127 (NRS643), MRSA, SCCmec IV, bla +; conditions: Staphylococcus aureus
Description: as §1

[22] = tested on: M1712 (NRS127), MRSA, SCCmec II, bla +; conditions: Staphylococcus aureus
Description: as §1

[23] = tested on: CM05, MRSA, SCCmec I, bla +; conditions: Staphylococcus aureus
Description: as §1

[24] = tested on: SR4035, MRSA, SCCmec IV, bla +; conditions: Staphylococcus aureus
Description: as §1

[25] = tested on: TN-124 (NRS735), MRSA, SCCmec II, bla +; conditions: Staphylococcus aureus
Description: as §1

[26] = tested on: HIP 07930 (NRS22), MRSA/VISA, SCCmec II, bla +; conditions: Staphylococcus aureus
Description: as §1

[27] = NRS128, agent alone, read-out: MIC
[28] = 626 (NRS382), agent alone, read-out: MIC
[29] = CT-19 (NRS676), agent alone, read-out: MIC
[30] = AIS 1000505 (VRS10), agent alone, read-out: MIC
[31] = ATCC 33591, agent alone, read-out: MIC
[32] = LinR#12 (NRS119), agent alone, read-out: MIC
[33] = FPR3757, agent alone, read-out: MIC
[34] = N315 (NRS70), agent alone, read-out: MIC
[35] = USA300-0114 (NRS384), agent alone, read-out: MIC
[36] = CO-23 (NRS661), agent alone, read-out: MIC
[37] = NY-315 (NRS715), agent alone, read-out: MIC
[38] = HIP13036 (NRS404), agent alone, read-out: MIC
[39] = HT 20020320 (NRS245), agent alone, read-out: MIC
[40] = Staphylococcus aureus, 880, agent alone, read-out: MIC
[41] = CA-347 (NRS648), agent alone, read-out: MIC
[42] = MN-082 (NRS701), agent alone, read-out: MIC
[43] = HFH 30495, agent alone, read-out: MIC
[44] = CA-263 (NRS647), agent alone, read-out: MIC
[45] = HFH 29568, agent alone, read-out: MIC
[46] = MW2 (NRS123), agent alone, read-out: MIC
[47] = CA-127 (NRS643), agent alone, read-out: MIC
[48] = M1712 (NRS127), agent alone, read-out: MIC
[49] = SR4035, agent alone, read-out: MIC
[50] = HIP 07930 (NRS22), agent alone, read-out: MIC

Compound: CCO/N=C(\C(=O)N[C@@H]1C(=O)N2C(C(=O)[O-])=C(Sc3nc(-c4cc[n+](C)cc4)cs3)CS[C@H]12)c1nsc(N)n1 [CPT, ceftaroline]
- MIC (NRS128, MSSA, bla +; [27]): 0.06 µg/mL
- MIC [1, 28]: 1 µg/mL
- MIC [2, 29]: 1 µg/mL
- MIC [3, 30]: 1 µg/mL
- MIC [4, 31]: 1 µg/mL
- MIC [5, 32]: 1 µg/mL
- MIC [6, 33]: 0.5 µg/mL
- MIC [7, 34]: 1 µg/mL
- MIC [8, 35]: 0.5 µg/mL
- MIC [9, 36]: 1 µg/mL
- MIC [10, 37]: 1 µg/mL
- MIC [11, 38]: 1 µg/mL
- MIC [12, 39]: 0.5 µg/mL
- MIC [13]: 1 µg/mL
- MIC [14, 40]: 1 µg/mL
- MIC [15, 41]: 1 µg/mL
- MIC [16, 42]: 2 µg/mL
- MIC [17, 43]: 1 µg/mL
- MIC [18, 44]: 0.5 µg/mL
- MIC [19, 45]: 1 µg/mL
- MIC [20, 46]: 1 µg/mL
- MIC [21, 47]: 0.5 µg/mL
- MIC [22, 48]: 1 µg/mL
- MIC [23]: 2 µg/mL
- MIC [24, 49]: 1 µg/mL
- MIC [25]: 1 µg/mL
- MIC [26, 50]: 0.25 µg/mL

Compound: N#Cc1ccc2nc(SCB(O)O)n(Cc3ccc(C(F)(F)F)cc3C(F)(F)F)c2c1 [Compound 4, (((1-(2,4-bis(trifluoro-methyl)benzyl)-6-cyano-1H-benzo[d]imidazol-2-yl)thio)methyl)boronic acid]
- MIC (NRS128, MSSA, bla +; [27]): 16 µg/mL
- MIC [1, 28]: 16 µg/mL
- MIC [2, 29]: 16 µg/mL
- MIC [3, 30]: 16 µg/mL
- MIC [4, 31]: 16 µg/mL
- MIC [5, 32]: 16 µg/mL
- MIC [6, 33]: 16 µg/mL
- MIC [7, 34]: 16 µg/mL
- MIC [8, 35]: 16 µg/mL
- MIC [9, 36]: 32 µg/mL
- MIC [10, 37]: 16 µg/mL
- MIC [11, 38]: 8 µg/mL
- MIC [12, 39]: 16 µg/mL
- MIC [13]: 16 µg/mL
- MIC [14, 40]: 16 µg/mL
- MIC [15, 41]: 16 µg/mL
- MIC [16, 42]: 16 µg/mL
- MIC [17, 43]: 16 µg/mL
- MIC [18, 44]: 16 µg/mL
- MIC [19, 45]: 16 µg/mL
- MIC [20, 46]: 16 µg/mL
- MIC [21, 47]: 16 µg/mL
- MIC [22, 48]: 16 µg/mL
- MIC [23]: 32 µg/mL
- MIC [24, 49]: 16 µg/mL
- MIC [25]: 16 µg/mL
- MIC [26, 50]: 16 µg/mL

Compound: CO[C@@]1(NC(=O)Cc2cccs2)C(=O)N2C(C(=O)O)=C(COC(N)=O)CS[C@@H]21 [FOX, cefoxitin]
- MIC (NRS128, MSSA, bla +): 4 µg/mL
- MIC [1]: 512 µg/mL
- MIC [2, 29]: 64 µg/mL
- MIC [3]: 128 µg/mL
- MIC [4]: 128 µg/mL
- MIC [5, 32]: 256 µg/mL
- MIC [6, 33]: 64 µg/mL
- MIC [7]: 128 µg/mL
- MIC [8, 35]: 64 µg/mL
- MIC [9]: 128 µg/mL
- MIC [10, 37]: 256 µg/mL
- MIC [11, 38]: 256 µg/mL
- MIC [12]: 128 µg/mL
- MIC [13]: 64 µg/mL
- MIC [14, 40]: 64 µg/mL
- MIC [15]: 128 µg/mL
- MIC [16, 42]: 256 µg/mL
- MIC [17, 43]: 256 µg/mL
- MIC [18, 44]: 32 µg/mL
- MIC [19, 45]: 32 µg/mL
- MIC [20, 46]: 64 µg/mL
- MIC [21]: 128 µg/mL
- MIC [22]: 128 µg/mL
- MIC [23]: 512 µg/mL
- MIC [24]: 128 µg/mL
- MIC [25]: 128 µg/mL
- MIC [26]: 128 µg/mL

Compound: C[C@@H](O)[C@H]1C(=O)N2C(C(=O)O)=C(S[C@@H]3CN[C@H](C(=O)N(C)C)C3)[C@H](C)[C@H]12 [MEM, meropenem]
- MIC (NRS128, MSSA, bla +; [27]): 0.13 µg/mL
- MIC [1, 28]: 32 µg/mL
- MIC [2, 29]: 4 µg/mL
- MIC [3, 30]: 32 µg/mL
- MIC [4, 31]: 16 µg/mL
- MIC [5, 32]: 32 µg/mL
- MIC [6, 33]: 4 µg/mL
- MIC [7, 34]: 16 µg/mL
- MIC [8, 35]: 4 µg/mL
- MIC [9, 36]: 32 µg/mL
- MIC [10, 37]: 32 µg/mL
- MIC [11, 38]: 8 µg/mL
- MIC [12, 39]: 8 µg/mL
- MIC [13]: 8 µg/mL
- MIC [14, 40]: 16 µg/mL
- MIC [15, 41]: 16 µg/mL
- MIC [16, 42]: 32 µg/mL
- MIC [17, 43]: 32 µg/mL
- MIC [18, 44]: 4 µg/mL
- MIC [19, 45]: 16 µg/mL
- MIC [20, 46]: 4 µg/mL
- MIC [21, 47]: 4 µg/mL
- MIC [22, 48]: 16 µg/mL
- MIC [23]: > 32 µg/mL
- MIC [24, 49]: 16 µg/mL
- MIC [25]: 8 µg/mL
- MIC [26, 50]: 8 µg/mL

Compound: Cc1onc(-c2ccccc2)c1C(=O)N[C@@H]1C(=O)N2[C@@H]1SC(C)(C)[C@@H]2C(=O)O [OXA, oxacillin]
- MIC (NRS128, MSSA, bla +): 0.5 µg/mL
- MIC [1]: 512 µg/mL
- MIC [2]: 256 µg/mL
- MIC [3]: 256 µg/mL
- MIC [4]: 512 µg/mL
- MIC [5]: 512 µg/mL
- MIC [6]: 64 µg/mL
- MIC [8]: 128 µg/mL
- MIC [9]: 256 µg/mL
- MIC [10]: 256 µg/mL
- MIC [11]: 256 µg/mL
- MIC [12]: 64 µg/mL
- MIC ([14]; Staphylococcus aureus): 256 µg/mL
- MIC [15]: 256 µg/mL
- MIC [16]: 512 µg/mL
- MIC [17]: 512 µg/mL
- MIC [18]: 64 µg/mL
- MIC [19]: 64 µg/mL
- MIC [20]: 64 µg/mL
- MIC [21]: 64 µg/mL
- MIC [22]: 256 µg/mL
- MIC [23]: 512 µg/mL
- MIC [24]: 128 µg/mL
- MIC [25]: 256 µg/mL
- MIC [26]: 64 µg/mL

Reference: patent publication US20260284011A1, “COMPOUNDS FOR RESTORING SUSCEPTIBILITY TO BETA-LACTAM ANTIBIOTICS” (UNIVERSITY OF NOTRE DAME DU LAC, priority 2023, published 2026)
